Results: ChEMBL document CHEMBL1129189 (Bioorg Med Chem Lett, 1996)

What was measured:
[1] = target: T1, Retinoic acid receptor RXR-gamma (Homo sapiens, UniProt P48443); experiment: (§1) Compound was tested for binding affinity against retinoid X receptor using 5 nM of [3H]9-cis-RA as a radioligand in baculovirus expressed receptor
T1 sequence (P48443 whole entry): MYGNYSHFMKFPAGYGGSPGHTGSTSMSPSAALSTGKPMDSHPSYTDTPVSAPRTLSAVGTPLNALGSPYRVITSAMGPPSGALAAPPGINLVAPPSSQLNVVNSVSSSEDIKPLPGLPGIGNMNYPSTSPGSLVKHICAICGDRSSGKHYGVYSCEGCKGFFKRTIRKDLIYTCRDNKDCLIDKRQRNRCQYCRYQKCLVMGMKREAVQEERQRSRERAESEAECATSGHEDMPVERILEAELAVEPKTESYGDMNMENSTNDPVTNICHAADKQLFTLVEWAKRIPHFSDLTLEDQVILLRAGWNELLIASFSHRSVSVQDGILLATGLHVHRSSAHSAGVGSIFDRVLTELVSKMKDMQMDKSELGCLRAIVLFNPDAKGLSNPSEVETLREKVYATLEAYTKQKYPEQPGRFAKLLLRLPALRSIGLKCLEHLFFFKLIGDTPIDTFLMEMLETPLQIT

[2] = target: T2, Retinoic acid receptor RXR-beta (Homo sapiens, UniProt P28702); experiment: as §1
T2 sequence (P28702 whole entry): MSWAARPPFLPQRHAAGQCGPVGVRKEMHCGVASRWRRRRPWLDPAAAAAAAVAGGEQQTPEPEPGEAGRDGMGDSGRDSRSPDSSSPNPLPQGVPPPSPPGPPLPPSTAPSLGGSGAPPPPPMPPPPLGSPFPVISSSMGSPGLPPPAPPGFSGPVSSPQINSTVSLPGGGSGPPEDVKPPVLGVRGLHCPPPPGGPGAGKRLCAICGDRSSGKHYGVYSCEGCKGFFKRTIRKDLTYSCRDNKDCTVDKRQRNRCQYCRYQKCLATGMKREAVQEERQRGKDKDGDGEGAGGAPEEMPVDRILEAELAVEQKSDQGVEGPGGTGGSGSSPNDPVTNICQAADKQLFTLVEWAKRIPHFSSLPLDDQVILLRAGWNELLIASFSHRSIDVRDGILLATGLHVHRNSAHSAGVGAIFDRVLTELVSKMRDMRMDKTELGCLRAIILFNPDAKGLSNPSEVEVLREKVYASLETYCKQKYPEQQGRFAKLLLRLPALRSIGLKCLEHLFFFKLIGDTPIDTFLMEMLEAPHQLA

[3] = target: T3, Retinoic acid receptor gamma (Homo sapiens, UniProt P13631); experiment: (§2) Compound was tested for binding affinity against retinoic acid receptor using 5 nM of [3H]RA as a radioligand in baculovirus expressed receptor
T3 sequence (P13631 whole entry): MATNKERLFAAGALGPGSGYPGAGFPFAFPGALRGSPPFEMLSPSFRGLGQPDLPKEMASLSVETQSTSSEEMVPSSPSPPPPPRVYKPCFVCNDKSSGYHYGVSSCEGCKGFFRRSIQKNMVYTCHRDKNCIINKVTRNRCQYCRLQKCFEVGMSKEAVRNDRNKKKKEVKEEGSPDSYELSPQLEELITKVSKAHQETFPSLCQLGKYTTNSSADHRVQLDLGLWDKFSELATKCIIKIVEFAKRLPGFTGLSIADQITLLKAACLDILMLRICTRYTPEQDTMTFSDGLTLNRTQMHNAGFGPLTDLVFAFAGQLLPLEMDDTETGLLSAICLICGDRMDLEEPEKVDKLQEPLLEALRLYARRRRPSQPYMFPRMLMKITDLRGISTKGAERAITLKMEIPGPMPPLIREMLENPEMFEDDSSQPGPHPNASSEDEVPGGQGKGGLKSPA

[4] = target: T4, Retinoic acid receptor beta (Homo sapiens, UniProt P10826); experiment: as §2
T4 sequence (P10826 whole entry): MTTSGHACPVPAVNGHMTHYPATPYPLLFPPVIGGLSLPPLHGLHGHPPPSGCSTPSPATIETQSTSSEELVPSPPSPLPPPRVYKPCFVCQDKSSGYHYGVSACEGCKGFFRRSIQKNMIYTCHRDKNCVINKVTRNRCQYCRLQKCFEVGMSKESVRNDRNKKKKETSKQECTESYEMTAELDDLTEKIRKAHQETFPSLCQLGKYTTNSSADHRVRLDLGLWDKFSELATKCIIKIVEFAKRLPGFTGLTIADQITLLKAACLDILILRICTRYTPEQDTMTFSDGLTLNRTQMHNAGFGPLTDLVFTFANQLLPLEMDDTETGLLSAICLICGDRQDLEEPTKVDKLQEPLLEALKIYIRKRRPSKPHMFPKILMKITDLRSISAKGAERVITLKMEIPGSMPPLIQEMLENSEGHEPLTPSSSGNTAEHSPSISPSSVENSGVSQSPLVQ

[5] = target: T5, Retinoic acid receptor alpha (Homo sapiens, UniProt P10276); experiment: as §2
T5 sequence (P10276 whole entry): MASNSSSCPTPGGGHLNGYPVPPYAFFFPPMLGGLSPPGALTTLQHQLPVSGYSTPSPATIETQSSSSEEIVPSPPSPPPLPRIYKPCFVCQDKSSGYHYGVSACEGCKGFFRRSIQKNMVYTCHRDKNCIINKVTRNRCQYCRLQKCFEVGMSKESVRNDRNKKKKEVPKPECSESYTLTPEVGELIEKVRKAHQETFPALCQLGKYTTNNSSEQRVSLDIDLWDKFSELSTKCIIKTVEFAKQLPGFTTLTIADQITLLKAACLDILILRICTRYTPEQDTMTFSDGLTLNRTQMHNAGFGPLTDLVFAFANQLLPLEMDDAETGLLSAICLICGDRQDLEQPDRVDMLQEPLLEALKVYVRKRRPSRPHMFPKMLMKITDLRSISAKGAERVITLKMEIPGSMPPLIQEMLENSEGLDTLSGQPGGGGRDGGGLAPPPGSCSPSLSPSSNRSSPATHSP

[6] = target: T2, Retinoic acid receptor RXR-beta; experiment: Compound was tested for functional activity in CV-1 cells transfected with an expression vector for retinoid X receptor beta using transactivation assay; format: cell-based
[7] = target: T1, Retinoic acid receptor RXR-gamma; experiment: Compound was tested for functional activity in CV-1 cells transfected with an expression vector for retinoid X receptor gamma using transactivation assay; format: cell-based
[8] = target: T5, Retinoic acid receptor alpha; experiment: Compound was tested for functional activity in CV-1 cells transfected with an expression vector for retinoic acid receptor alpha using transactivation assay; format: cell-based
[9] = target: T4, Retinoic acid receptor beta; experiment: Compound was tested for functional activity in CV-1 cells transfected with an expression vector for retinoic acid receptor beta using transactivation assay; format: cell-based
[10] = target: T6, Retinoic acid receptor RXR-alpha (Homo sapiens, UniProt P19793); experiment: Compound was tested for binding affinity against retinoid X receptor using 5 nM of [3H]-9-cis-RA as a radioligand in baculovirus expressed receptor
T6 sequence (P19793 whole entry): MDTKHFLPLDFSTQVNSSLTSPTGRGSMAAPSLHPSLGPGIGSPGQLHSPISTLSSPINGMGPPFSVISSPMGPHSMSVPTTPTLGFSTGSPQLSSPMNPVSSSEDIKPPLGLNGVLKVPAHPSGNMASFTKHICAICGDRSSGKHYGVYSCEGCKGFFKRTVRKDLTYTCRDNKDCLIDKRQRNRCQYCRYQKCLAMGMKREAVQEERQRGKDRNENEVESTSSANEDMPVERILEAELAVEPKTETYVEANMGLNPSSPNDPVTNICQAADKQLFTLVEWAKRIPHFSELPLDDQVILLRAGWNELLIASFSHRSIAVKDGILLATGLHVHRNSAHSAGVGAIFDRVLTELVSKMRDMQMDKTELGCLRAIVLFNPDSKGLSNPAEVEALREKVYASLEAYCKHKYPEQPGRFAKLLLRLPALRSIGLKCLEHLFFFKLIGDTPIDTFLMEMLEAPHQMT

[11] = target: T6, Retinoic acid receptor RXR-alpha; experiment: Compound was tested for functional activity in CV-1 cells transfected with an expression vector for retinoid X receptor alpha using transactivation assay; format: cell-based
[12] = target: T3, Retinoic acid receptor gamma; experiment: Compound was tested for functional activity in CV-1 cells transfected with an expression vector for retinoic acid receptor gamma using transactivation assay; format: cell-based

Compound | Kd [1] [nM] | Kd [2] [nM] | Kd [3] [nM] | Kd [4] [nM] | Kd [5] [nM] | EC50 [6] [nM] | EC50 [7] [nM] | EC50 [8] [nM] | EC50 [9] [nM] | Kd [10] [nM] | EC50 [11] [nM] | EC50 [12] [nM]
CC(=CC(=O)O)/C=C/C1CC1(C)c1cc2c(cc1C)C(C)(C)CCC2(C)C (centres undefined) | > 1000 | > 1000 | > 1000 | > 1000 | > 1000 | > 1000 | > 1000 | > 1000 | > 1000 | > 1000 | > 1000 | > 1000
CC(/C=C/C1CC1(C)c1cc2c(cc1C)C(C)(C)CCC2(C)C)=C\C(=O)O (centres undefined) | 42 | 56 | > 1000 | > 1000 | > 1000 | 100 | 71 | > 1000 | > 1000 | 71 | 130 | > 1000
